Experiment: Transformation into the amino form after incubation in mouse plasma at 37° C. (Experiment 1)
Assay type: in vitro ADME
Details: 10 mg equivalent/ml
Experimental: The lyophilized 7β-[2(Z)-ethoxyimino-2-(5-phosphonoamino-1,2,4-thiadiazol-3-yl)acetamido]-3-[4-(1-methyl-4-pyridinio)-2-thiazolylthio]-3-cephem-4-carboxylate obtained in Working Example 6, was dissolved in mouse plasma to prepare 10 mg equivalent/ml solution. After incubation at 37° C., the transformation rate into 7β-[2(Z)-ethoxyimino-2-(5-amino-1,2,4-thiadiazol-3-yl)acetamido]-3-[4-(1-methyl-4-pyridinio)-2-thiazolylthio]-3-cephem-4-carboxylate (amino form) was measured. The transformation rates in 30 minutes and 1 hour were as follows: […]

CCO/N=C(\C(=O)N[C@@H]1C(=O)N2C(C(=O)[O-])=C(Sc3nc(-c4cc[n+](C)cc4)cs3)CS[C@H]12)c1nsc(NP(=O)(O)O)n1 [Working Example 6, 7β-[2(Z)-Ethoxyimino-2-(5-phosphonoamino-1,2,4-thiadiazol-3-yl)acetamido]-3-[4-(1-methyl-4-pyridinio)-2-thiazolylthio]-3-cephem-4-carboxylate]
transformation rate into amino form (30 minutes): 35%
transformation rate into amino form (1 hour): 62%
